This note sets out measurements from paper PMC10055976, “Selection and evolution of disulfide-rich peptides via cellular protein quality control” (Chemical Science, 2023).

Data set [1] addresses T1, Keap1 kelch domain protein (Residues 321-609) (Homo sapiens, UniProt Q14145).
T1 construct: Keap1 kelch domain protein (Residues 321-609, Homo Sapiens); made in house
The experiment in a line: Surface plasmon resonance (SPR) assay of oxidized peptides. Type of data set: binding. As to conditions: for Binding affinity to Keap1 (in words): major oxidized product, SPR, preliminary; for Binding affinity to Keap1 (in words) / SPR sensorgrams: binding of Keap1 (in words): 25 °C, pH 7.4; for SPR sensorgrams: binding of Keap1 (in words): oxidized peptide, HPLC purity >95%. (In general: Surface plasmon resonance follows binding to a sensor surface in real time, without labels.)

The nature of data set [2]: Oxidative folding of peptides (HPLC). It counts as physicochemical. Particulars: drp1 and drp4: 10 μM, 100 mM phosphate pH 7.4, 0.2 mM GSSG, drp2, drp3, k-1, k-2: 10 μM, same buffer with 6 M Gu·HCl and 0.2 mM GSSG, overnight, 37 °C. From the text:
(§1) We then deep-sequenced the DRPs enriched in P9, and a total of ∼1404 different sequences with the expected cysteine patterns were obtained (3 different scaffolds: 256, 742 and 406, respectively; dataset S3 and Fig. 4a). Sequences with stop codon(s) are very rare compared to that found in the previous selection (dataset S4), further confirming the success of the second-generation PQC-select. […] To chemically examine the foldability of the selected DRPs, four sequences were randomly selected for synthesis and oxidation. All of them can be specifically oxidized to a major product as determined using HPLC (Fig. 4b and S7 ^†). […] The disulfide pairing of drp1 was clearly shown by the ^1H–^1H NOESY spectra (Fig. S10 ^†).
Fig. 4 Identification and application of new DRPs selected from the second-generation PQC-select. (a) Top 5 enriched sequences for the three different scaffolds obtained from the second-generation PQC-select, scaffold M-2 (top), scaffold M-6 (middle) and scaffold M-9 (bottom). (b) HPLC chromatograms showing the oxidation of drp1, drp2, drp3 and drp4 in phosphate buffers (pH 7.4, 100 mM) containing 0.2 mM GSSG or 6 M Gu·HCl and 0.2 mM GSSG. […]
Reduced peptides (drp1 and 4, 10 μM) was dissolved in 100 mM phosphate buffer (pH 7.4) containing 0.2 mM GSSG. […] After that, oxidative folding of all the peptides was further analysed using HPLC and mass spectrometry . […]

Data set [3] in a line: Solution NMR structure and disulfide pairing of drp1. It counts as physicochemical. As to conditions: oxidized drp1, ~1 mM, 80% perdeuterated acetonitrile / 20% H2O, 302 K.
From the text: as §1, with “S10 ^†). […]” for “S10 ^†).”
without target protein were then added to half of the blocked phage respectively and incubated for 30 min on a rotating wheel. […]
Reduced peptides (drp1 and 4, 10 μM) was dissolved in 100 mM phosphate buffer (pH 7.4) containing 0.2 mM GSSG. […] After that, oxidative folding of all the peptides was further analysed using HPLC and mass spectrometry .
Drp1 were dissolved in 80% perdeuterated acetonitrile and 20% H2O at a final concentration of about 1 mM . […] Two dimensional (2D) 1H, 15N/13C HSQC spectra were recorded to obtain chemical shifts of heavy atoms […]
in backbone and side-chains. […] The NMR data were processed using NMRPipe/NMRDraw and analyzed using NMRFAM-SPARKY5. […]

Where a SMILES comes first, the peptide text is derived from it. Bridges are numbered along the chain shown (N, C = ends).

One may read the Kd as the free concentration of one partner at which half of the binding sites on the other are occupied at equilibrium, for simple one-to-one binding.

T1 sequence (Q14145 321-609): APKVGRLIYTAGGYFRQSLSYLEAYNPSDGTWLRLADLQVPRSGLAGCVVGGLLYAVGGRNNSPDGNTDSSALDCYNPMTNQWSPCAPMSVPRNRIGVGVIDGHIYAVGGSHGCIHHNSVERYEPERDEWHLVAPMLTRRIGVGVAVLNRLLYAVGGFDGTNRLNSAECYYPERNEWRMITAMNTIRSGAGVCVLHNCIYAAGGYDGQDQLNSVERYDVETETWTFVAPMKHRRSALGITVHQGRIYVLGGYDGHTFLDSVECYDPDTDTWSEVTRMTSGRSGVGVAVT

On to `CC[C@H](C)[C@@H]1NC(=O)[C@@H]2CCCN2C(=O)[C@H](CCCNC(=N)N)NC(=O)[C@H](CCCNC(=N)N)NC(=O)[C@H]([C@@H](C)O)NC(=O)CNC(=O)[C@H](CCC(N)=O)NC(=O)[C@@H]2CSSC[C@H](NC(=O)[C@H](CCSC)NC(=O)[C@H](C)NC(=O)[C@H](CCCNC(=N)N)NC1=O)C(=O)N[C@@H](CC(N)=O)C(=O)N[C@@H](CC(=O)O)C(=O)N[C@@H](CO)C(=O)N[C@@H](C(C)C)C(=O)N1CCC[C@H]1C(=O)N[C@H]1CSSC[C@H](NC(=O)[C@@H](N)Cc3c[nH]c4ccccc34)C(=O)N3CCC[C@H]3C(=O)N3CCC[C@H]3C(=O)N[C@@H](CSSC[C@@H](C(N)=O)NC(=O)[C@@H]3CCCN3C(=O)[C@@H]3CCCN3C1=O)C(=O)N[C@@H](CCCNC(=N)N)C(=O)N[C@@H](Cc1ccccc1)C(=O)N[C@@H]([C@@H](C)O)C(=O)N[C@@H](CC(C)C)C(=O)N[C@@H](CO)C(=O)N[C@@H](CCC(=O)O)C(=O)N[C@@H](CCC(=O)O)C(=O)N[C@@H]([C@@H](C)O)C(=O)NCC(=O)N[C@@H](CCC(=O)O)C(=O)N2` [k-1] (H-WCPPCRFTLSEETGECQGTRRPIRAMCNDSVPCPPC-NH2; disulfide 2-33, 5-36, 16-27 (inferred)), for which the “Binding affinity to Keap1 (in words)” value in data set [1] is recorded as “submicromolar range”. Besides, the “SPR sensorgrams: binding of Keap1 (in words)” value in data set [1] (50-3200 nM) is listed as “in a concentration-dependent manner”. Besides, the Kd in data set [1] (oxidized product (major), Biacore T200, 25 °C, biotinylated Keap1 on CAP chip, 10 mM phosphate pH 7.4, 50 μM EDTA, 0.05% Tween 20, 50-3200 nM, multiple cycle kinetics, 1:1 binding model, read-out: KD (equilibrium dissociation constant, SPR)) stood at 349 nM. For the same compound, in data set [1] (oxidized product, Biacore T200, 25 °C, 10 mM phosphate pH 7.4, 50 μM EDTA, 0.05% Tween 20, multiple cycle kinetics, 1:1 binding model, local fit, read-out: ka (association rate constant)), the kon was found to be 54800 M⁻¹ s⁻¹. Moreover, in data set [1] (oxidized product, Biacore T200, 25 °C, 10 mM phosphate pH 7.4, 50 μM EDTA, 0.05% Tween 20, multiple cycle kinetics, 1:1 binding model, local fit, read-out: kd (dissociation rate constant)), the koff was determined as 0.0191 s⁻¹. In addition, the “Oxidative folding outcome (in words)” value in data set [2] is “can be oxidized to a major product”.

“H-GCPPCRFTLSPWVSPCSNPHWPIRAMCNDSVPCPPC-NH2 (also: bicyclic or more (positions not given here)) [drp1, CPPC disulfide-rich peptide selected by PQC-select; PDB 8GUC]”: in data set [3], the “Folding in solution by 1H–1H TOCSY (in words)” value is listed as “well-folded in solution”. Also, the “3D structure and disulfide pairing by NMR (in words)” value in data set [3] (PDB 8GUC, 15 lowest-energy structures) is “irregular but rigid loops and a short α-helix constrained through three disulfide bonds with the two CPPC motifs paired parallelly”.

Take “H-WCPPCRFTLSPETGECQGTKRPIRAMCNDSVPCPPC-NH2 (also: bicyclic or more (positions not given here)) [k-2]”: the “Binding affinity to Keap1 (in words)” value in data set [1] is recorded as “submicromolar range”. Also, the “SPR sensorgrams: binding of Keap1 (in words)” value in data set [1] (50-3200 nM) is recorded as “in a concentration-dependent manner”. In addition, the “Oxidative folding outcome (in words)” value in data set [2] is “can be oxidized to a major product”.
